In patent publication US20150141506A1, “INDANE DIMERS FOR USE IN THE TREATMENT OF AUTOIMMUNE INFLAMMATORY DISEASE” (Venantius Limited, priority 2012, published 2015):
≈ marks a conversion by molar mass, not a printed value. Entries after “also recorded” stand apart in the source; their conditions may differ. Like-named read-outs stand apart in the source and are kept apart here. Marks after values point to notes of the source that are not given here.

What was measured:
[1] = Solubility in Milli-RO water and pH buffers; assay type: physicochemical; conditions: for aqueous solubility, in words: free acid enantiomers
Method: The sodium salt, potassium salt, calcium salt, α-methylbenzylamine salt and N-Methyl-(D)-Glucamine salt were synthesised.
The solubility of the four compounds were determined: […]

[2] = tested on: 5% DSS colitis in BALB/c mice; experiment: Acute murine 5% DSS colitis model, Experiment 1; assay type: in vivo; conditions: for activity in 5% DSS murine colitis (DAI), in words: 30 mg/kg p.o. daily for 7 days
Description: The study is widely used as a model for studying the pathogenesis of UC and also for screening new therapeutic interventions for the treatment of UC.
In these studies, an acute colitis model was used, with 5% DSS administered in the drinking water of BALB/c mice. This dosage regime induces severe acute colitis, by days 7-8 mice had overt rectal bleeding and marked weight loss; unless sacrificed beforehand, all mice would have died by days 10-12.
Specific Pathogen-Free BALB/c mice, 6-8 weeks of age, were obtained from a commercial supplier (Harlan UK). Mice were fed irradiated diet and housed in individually ventilated cages (Tecniplast UK) under positive pressure.
DSS (5%) was dissolved in drinking water. Compounds were administered orally at a dose of 10 mg/kg or 30 mg/kg on days 0-7, and mice were culled on day 8 or day 9, depending on the severity of the disease. The mice were checked each day for morbidity and the weight of individual mice was recorded. Induction of colitis was determined upon autopsy, length of colon and histology. Colons were recovered and stored at −20° C. for immunological analysis. All of the compounds and experimental groups are randomly alphabetically labelled. Throughout experiments all data recording was performed in a blind manner. The codes on boxes/groups were not broken until after the data was analysed i.e. boxes labelled A, B, C etc were identified as untreated, DSS-treated, or DSS+compound-treated.
To quantify the extent of colitis, a disease activity index (DAI) was determined based on weight loss, faecal blood and stool consistency. A score was given for each parameter, with the sum of the scores used as the DAI. For each treatment group n=8.
All compounds were prepared for oral gavage (0.1 mL per os (p.o.) per 10 g body weight) as a suspension in 0.5% carboxymethyl cellulose/2% Tween 80, at a dose of 3-30 mg/Kg.

[3] = tested on: IL2 release from Jurkat cells; experiment: Effect of compounds on IL-2 secretion in T lymphocytes (Jurkat 6.1, anti-CD3/anti-CD28 stimulated, ELISA); assay type: cell-based; conditions: for IL-2 production, absolute values: 30 min pre-treatment, DMSO control 320.67 (plate 2), 338.25 (plate 3)
Method: The T cell line Jurkat 6.1 (ATCC) was used. Cells were pre-treated for 30 min with 1 μM or 10 μM of the respective compound and then stimulated with plate-bound anti-CD3 (BD Pharmingen) and anti-CD28 (AnCell). DMSO was used as vehicle control. […] After 24 hs the supernatant was collected and IL-2 secretion was measured by ELISA.
Compounds were prepared by dissolution in DMSO to yield final concentrations of 1 and 10 μg/ml

[4] = Partition coefficient (Log10 POW) by HPLC method; assay type: physicochemical; conditions: reverse phase C18 HPLC; for Log10 POW, Acid: acidic pH; for Log10 POW, Basic: alkaline pH; for Log10 POW, Neutral: neutral pH
[5] = tested on: 5% DSS colitis in BDF 1 mice; experiment: 5% DSS murine colitis, Experiment 2 (Method 2); assay type: in vivo; conditions: day 7, 10 ml/kg oral gavage daily day 0-6, 5-ASA 100 mg/kg; for DAI versus vehicle: 31 at 2 mg/ml, 47 at 4 mg/ml
Description: A total of 90 BDF 1 (H. Pylori-free, murine norovirus-free) male mice (Harlan Laboratories, UK) were used in the study. Animals were 8-10 weeks old on supply and used at 10-12 weeks of age. All mice were held in individually ventilated cages (IVCs) in an SPF (Specific Pathogen Free) barrier unit. The animals were identified by numbered cages and by ear punches.
Mice were randomised into study groups. All the mice in any one cage received the same treatment and were ear punched for identification purposes. Daily body weight measurements were used to calculate the volume of test item or vehicle administered in the applicable groups.
DSS (MP Biomedicals 0216011090, lot# M2709) was prepared as a 5% (w/v) solution in the drinking water and made fresh daily on days 0 to 6 inclusive. DSS was administered from day 0 to day 7.
Test items were stored at −20° C. until the initiation of the study. Each test item was formulated as a homogenous suspension in 0.5% carboxymethyl cellulose (CMC, Sigma C4888) in sterile water (Sigma W3500, lot# RNBC1419), using an Ultraturax homogeniser, on study day −1. Compound 31 was formulated at 2 mg/ml and 47 was formulated at 4 mg/ml. After formulation the test item and the vehicle stocks anonymised with a letter code. All solutions were stored at 4° C. during the study, with 3.8 ml of each suspension being dispensed daily. Test items were administered by oral gavage, daily at 09.00 hrs, at 10 ml/kg, from study day 0 to study day 6.
5-ASA (5-Aminosalicylic acid, Sigma A3537, lot#051M1878V) was aliquoted into pre-weighed amounts between 71 and 84 mg. Like test item suspensions, these aliquots were anonymised by a letter code. […]
Any animal was culled if the weight loss was greater than 20%. Animal well-being was monitored daily. Once daily from day 0 until the end of the study, all mice were weighed and assessed for stool consistency, and the presence of overt blood in the stool or around the anus according to the criteria in 2.1 […]

[6] = day 7, 10 mg/kg daily for 7 days, vehicle 9.3±0.51
[7] = day 7, 30 mg/kg p.o. daily for 7 days, vehicle 9.0±0.53

In the case of `O=C(O)c1ccc(C[C@@]2(C3=Cc4ccccc4C3)Cc3ccccc3[C@H]2O)cc1` (single isomer, unassigned) [Compound 2], the “aqueous solubility, in words” value [1] is reported as “limited aqueous solubility”, the “activity in 5% DSS murine colitis (DAI), in words” value (“activity in 5% DSS murine colitis” below) [2] is reported as “highly active” and the “potency compared among the four enantiomers, in words” value ([2]; 30 and 10 mg/kg) is reported as “most potent of the four enantiomers”. For the same compound, the “disease activity index (DAI)” value [2, 6] was 2.1±0.7, the “disease activity index (DAI)” value [2, 7] was 2.5±0.71 and the “IL-2 production, absolute values” ([3]; compound 1 uM, 24 h) was 98.71 pg/mL. For the same compound, the “IL-2 production, absolute values” ([3]; compound 10 uM, 24 h) was 124.36 pg/mL.

In the case of `O=C(O)c1ccc(C[C@]2(C3=Cc4ccccc4C3)Cc3ccccc3[C@@H]2O)cc1` (single isomer, unassigned) [Compound 3], the “activity in 5% DSS murine colitis” value [2] is reported as “minimal activity”, the “disease activity index (DAI)” value [2, 7] is reported as 5.3±0.6 and the “IL-2 production, absolute values” ([3]; compound 1 uM, 24 h) is reported as 150.07 pg/mL. For the same compound, the “IL-2 production, absolute values” ([3]; compound 10 uM, 24 h) was 98.57 pg/mL.

With `O=C(O)c1ccc(C[C@@]2(C3=Cc4ccccc4C3)Cc3ccccc3[C@@H]2O)cc1` [Compound 4, 4-(((1R,2S)-1-hydroxy-2,3-dihydro-1H,1′H-2,2′-biinden-2-yl)methyl)benzoic acid] the “activity in 5% DSS murine colitis” value [2] was “without activity; also recorded: almost devoid of activity”, the “IL-2 production, absolute values” ([3]; compound 1 uM, 24 h) was 97.21 pg/mL and the “IL-2 production, absolute values” ([3]; compound 10 uM, 24 h) was 94.21 pg/mL.

With `O=C(O)c1ccc(C[C@]2(C3=Cc4ccccc4C3)Cc3ccccc3[C@H]2O)cc1` [Compound 5, 4-(((1S,2R)-1-hydroxy-2,3-dihydro-1H,1′H-2,2′-biinden-2-yl)methyl)benzoic acid] the “Log10 POW, Acid” value [4] was 3.9, the “Log10 POW, Basic” value [4] was 3.7 and the “Log10 POW, Neutral” value [4] was 3.7. The solubility ([1]; Milli-RO water, water, read-out: solubility, Milli-RO H20) was 1.38 µg/mL (≈ 3.61 µM), the “aqueous solubility, in words” value [1] was “limited aqueous solubility” and the solubility ([1]; pH 4.0 buffer, pH 4, aqueous buffer, read-out: solubility, pH 4.0 Buffer) was 0.33 µg/mL (≈ 0.863 µM). For the same compound, the solubility ([1]; pH 7.0 buffer, pH 7, aqueous buffer, read-out: solubility, pH 7.0 Buffer) was 320 µg/mL (≈ 837 µM), the solubility ([1]; pH 9.0 buffer, pH 9, aqueous buffer, read-out: solubility, pH 9.0 Buffer) was 370 µg/mL (≈ 966 µM) and the “activity in 5% DSS murine colitis” value [2] was “highly active”. For the same compound, the “disease activity index (DAI)” value [2, 6] was “no significant (P>0.05) effect”, the “disease activity index (DAI)” value [2, 7] was 3.2±0.73 and the “IL-2 production, absolute values” ([3]; compound 1 uM, 24 h) was 127.29 pg/mL. The “IL-2 production, absolute values” ([3]; compound 10 uM, 24 h) was 134.14 pg/mL.

For `CNCC(O)C(O)C(O)C(O)CO.O=C(O)c1ccc(C[C@]2(C3=Cc4ccccc4C3)Cc3ccccc3[C@H]2O)cc1` [Compound 7, 6-(Methylamino)hexane-1,2,3,4,5-pentanol 4-(((1S,2R)-1-hydroxy-2,3-dihydro-1H,1′H-2,2′-biinden-2-yl)methyl)benzoate], the “Log10 POW, Acid” value [4] was 3.8, the “Log10 POW, Basic” value [4] was 3.5 and the “Log10 POW, Neutral” value [4] was 3.5. The “solubility, Milli-RO H20” value ([1]; Milli-RO water, listed as Compound 5 N-Methyl-D-Glucamine salt) was >60,000* μg/mL, the “solubility, pH 4.0 Buffer” value ([1]; pH 4.0 buffer) was 0.14 μg/mL and the “solubility, pH 7.0 Buffer” value ([1]; pH 7.0 buffer, listed as Compound 5 N-Methyl-D-Glucamine salt) was >60,000* μg/mL. For the same compound, the “solubility, pH 9.0 Buffer” value ([1]; pH 9.0 buffer, listed as Compound 5 N-Methyl-D-Glucamine salt) was >60,000* μg/mL and the “disease activity index (DAI)” value [2, 6] was “no significant (P>0.05) effect”.

For `NCC(=O)O[C@@H]1c2ccccc2C[C@@]1(Cc1ccc(C(=O)O)cc1)C1=Cc2ccccc2C1` [Compound 31, 4-{[(1′S,2′S)-1′-(glycyloxy)-1′,3′-dihydro-1H,2′H-2,2′-biinden-2′-yl]methyl}benzoic acid], the DAI versus vehicle [5] was “reduced DAI comparable or equal to 5ASA”, the “IL-2 production, absolute values” ([3]; compound 1 uM, 24 h) was 233.38 pg/mL and the “IL-2 production, absolute values” ([3]; compound 10 uM, 24 h) was 225.63 pg/mL.

With `CC(C)C[C@H](N)C(=O)O[C@@H]1c2ccccc2C[C@@]1(Cc1ccc(C(=O)N(C)C)cc1)C1=Cc2ccccc2C1` [Compound 45, (1S,2S)-2-[4-(dimethylcarbamoyl)benzyl]-2,3-dihydro-1H,1′H-2,2′-biinden-1-yl L-leucinate] the “effect on IL2 release, in words” value ([3]; 1 and 10 μM) was “greatest inhibition of IL2 release”, the activity at 1 µM ([3]; Homo sapiens, Jurkat, 24 h, 1 μM, read-out: IL2 release as percentage of anti-CD3/CD28 stimulated release in presence of DMSO, Mean) was 51.5% and the activity at 10 µM ([3]; Homo sapiens, Jurkat, 24 h, 10 μM, read-out: IL2 release as percentage of anti-CD3/CD28 stimulated release in presence of DMSO, Mean) was 1.5%. The “IL-2 production, absolute values” ([3]; compound 1 uM, 24 h) was 56.07 pg/mL and the “IL-2 production, absolute values” ([3]; compound 10 uM, 24 h) was 14.29 pg/mL.

In the case of `O=C(Nc1ccc(O)c(C(=O)O)c1)c1ccc(C[C@]2(C3=Cc4ccccc4C3)Cc3ccccc3[C@@H]2O)cc1` [Compound 46, 2-hydroxy-5-(4-(((1R,2R)-1-hydroxy-2,3-dihydro-1H,1′H-[2,2′-biinden]-2-yl)methyl)benzamido)benzoic acid], the “IL-2 production, absolute values” ([3]; compound 1 uM, 24 h) is reported as 92.21 pg/mL and the “IL-2 production, absolute values” ([3]; compound 10 uM, 24 h) is reported as 72.07 pg/mL.

For `O=C(Nc1ccc(O)c(C(=O)O)c1)c1ccc(C[C@@]2(C3=Cc4ccccc4C3)Cc3ccccc3[C@H]2O)cc1` [Compound 47, 2-hydroxy-5-(4-(((1S,2S)-1-hydroxy-2,3-dihydro-1H,1′H-[2,2′-biinden]-2-yl)methyl)benzamido)benzoic acid], the DAI versus vehicle [5] was “reduced DAI comparable or equal to 5ASA”, the “loss of body weight versus vehicle control” value ([5]; 47 formulated at 4 mg/ml) was “does not result in an increase in loss of body weight” and the “IL-2 production, absolute values” ([3]; compound 1 uM, 24 h) was 99.64 pg/mL. The “IL-2 production, absolute values” ([3]; compound 10 uM, 24 h) was 98.79 pg/mL.

With `C[C@]12C=CC(=O)C=C1CC[C@@H]1[C@@H]2[C@@H](O)C[C@@]2(C)[C@H]1CC[C@]2(O)C(=O)CO` [Prednisolone, reference compound] the “DAI on the day of autopsy versus vehicle controls” value ([2]; 5 mg/kg) was “reduced DAI scores”, the “colon cytokine levels (IL1β, TNFα, IL6)” value ([2]; day 7, Prednisolone 5 mg/kg) was “reduced (p<0.05)” and the “inhibition of colon shortening versus vehicle controls” value ([2]; day 7, Prednisolone 5 mg/kg) was “did have a significant effect”. For the same compound, the “reduction of colonic myeloperoxidase (MPO) activity” value ([2]; day 7, Prednisolone 5 mg/kg) was 54% and the “colon pathology (histology score) relative to vehicle” value ([2]; prednisolone 5 mg/Kg) was “no significant improvement”.
